Molecular target: T1, human Autotaxin (ATX) (Homo sapiens, UniProt Q13822)
T1 construct: used as template in overlapping PCR to generate a full length human ENPP2 ORF with or without a 3′-6×His tag; 6xHis (C); made in house; host or cells: FreeStyle 293-F cells (transient transfection, protein purified from culture supernatant)
Assay: Human ATX enzyme inhibition assay (LPC substrate, choline oxidase/HRP/Amplex Red coupled format)
Type: biochemical
Conditions: recombinant hATX 1 nM, 18:1 LPC 30 μM, fluorescence at 90 min minus 5 min
Procedure: Human ATX Enzyme Inhibition Assay
To identify inhibitors of the human Autotaxin (ATX) enzyme an in-vitro biochemical profiling assay has been developed using lysophosphatidylcholine (LPC) as substrate and recombinant enzyme. ATX activity is assayed via a coupled enzyme format where choline produced from LPC hydrolysis is converted to hydrogen peroxide by choline oxidase (CO). Hydrogen peroxide is in turn used as a co-substrate by horseradish peroxidase (HRP) to oxidise Amplex Red® and generate the red-fluorescent product, Resorufin.
50 mM Tris-HCl (pH 8.0); 120 mM NaCl; 20 mM CaCl2); 5 mM KCl; 1 mM MgCl2; 0.01% Triton X-100, sterile-filtered and stored at 4° C.
50 mM Tris-HCl (pH 8.0); 150 mM NaCl human Autotaxin (hATX): 0.97 mg/ml (9.718 μM) Molecular weight 99817. Working solution of 1.5 μM used in this assay.
100 mM 18:1 LPC dissolved in reagent dilution-buffer.
500 U/ml Choline Oxidase in reagent dilution buffer.
2540 U/ml Horseradish Peroxidase, in reagent dilution buffer (10.95 mg/ml).
20 mM Amplex Red (10-Acetyl-3,7-dihydroxy-phenoxazin) in DMSO.
Black, 384-well plate, black with clear bottom, non-treated surface.
Test compounds are received pre-diluted in DMSO as an 11-point concentration-response (0.5 mM highest concentration; 1 in 3.162 dilution). Test compounds are pre-diluted 1:1 (10 μL compound+10 μL assay buffer) in a 96-well conical bottomed plate prior to use.
ATX is diluted to 2.2 nM in assay buffer. Choline oxidase and horseradish peroxidase are diluted to 7.3 U/ml and 14.7 U/ml, respectively. 18:1 LPC and Amplex Red® are diluted to 110 μM and 183.3 μM, respectively (solution protected from light). 2.2 μL of compound pre-dilution or 50% DMSO is added to the reaction plate followed by 25 μL of ATX or assay buffer (negative control). Assay plate is mixed and incubated at room temperature for 10 mins. 15 μL of choline oxidase/horseradish peroxidase is then added. To initiate the reaction 15 μL of LPC 18:1/Amplex Red is added. Assay plate is mixed and incubated at room temperature in the dark. Fluorescence is measured at 5 mins (for background subtraction) and 90 mins.
• hATX: 1 nM • 18:1 LPC: 30 μM • Choline Oxidase: 2 U/ml • Horse Radish Peroxidase: 4 U/ml • Amplex Red®: 50 μM • DMSO: 2%
Fluorescence at 5-minutes is subtracted from the 90-minute end point data and normalized with respect to the positive control. IC50 values are calculated.
Results in the enzymatic ATX inhibition assay are provided for compounds of formula (I).

SMILES | IC50 [nM]
O=C(c1cnc(NC2Cc3cc(Cl)cc(OC(F)F)c3C2)nc1)N1CCC12COC2 (stereo not shown) [Example 5] | 224
O=C(c1cnc(NC2Cc3cc(Cl)cc(F)c3C2)nc1)N1CCC12COC2 (single isomer, unassigned) [Example 16, (S or R)-(2-((6-chloro-4-fluoro-2,3-dihydro-1H-inden-2-yl)amino)pyrimidin-5-yl)(6-oxa-1-azaspiro[3.3]heptan-1-yl)methanone] | 45.1
CC1(C)CCN1C(=O)c1cnc(N[C@H]2Cc3cc(Cl)cc(C#N)c3C2)nc1 [Example 12, (S)-6-chloro-2-((5-(2,2-dimethylazetidine-1-carbonyl)pyrimidin-2-yl)amino)-2.3-dihydro-1H-indene-4-carbonitrile] | 6.5
C[C@]1(O)C[C@]2(CCN2C(=O)c2cnc(N[C@H]3Cc4cc(Cl)cc(C#N)c4C3)nc2)C1 [Example 14, (cis)-6-chloro-2-(S)-((5-(6-hydroxy-6-methyl-1-azaspiro[3.3]heptane-1-carbonyl)pyrirnidin-2-yl)amino)-2,3-dihydro-1H-indene-4-carbonitrile] | 5.5
O=C(c1cnc(NC2Cc3ccc(Cl)c(F)c3C2)nc1)N1CCC12COC2 (stereo not drawn) [Example 9, (2-((5-chloro-4-fluoro-2,3-dihydro-lH-inden-2-yl)amino)pyrimidin-5-yl)(6-oxa-1-azaspiro[3.3]heplan-l-yl)methanone] | 123
O=C(c1cnc(NC2Cc3cc(Cl)cc(Cl)c3C2)nc1)N1CCC12COC2 (stereo not shown) [Example 1] | 13
N#Cc1cc(Cl)cc2c1C[C@@H](Nc1ncc(C(=O)N3CCC34CC(F)(F)C4)cn1)C2 [Example 13, (S)-6-chloro-2-((5-(6,6-difluoro-1-azaspiro[3.3]heptane-1-carbonyl)pyrimidin-2-yl)amino)-2,3-dihydro-1H-indene-4-carbonitrile] | 3
O=C(c1cnc(NC2Cc3ccc(Cl)c(Cl)c3C2)nc1)N1CCC12COC2 (stereo not shown) [Example 3, (2-((4,5-dichloro-2,3-dihydro-1H-inden-2-yl)amino)pyrimidin-5-yl)(6-oxa-1-azaspiro[3.3]heptan-1-yl)methanone] | 128
CC#Cc1cc(Cl)cc2c1CC(Nc1ncc(C(=O)N3CCC34COC4)cn1)C2 (stereo not drawn) [Example 7, (2-((6-chloro-4-(prop-l-yn-1-yl)-2,3-dihydro-lH-inden-2-yl)amino)pyrimidin-5-yl)(6-oxa-1-azaspiro[3.3]heplan-l-yl)methanone] | 23.7
Cc1c(Cl)ccc2c1CC(Nc1ncc(C(=O)N3CCC34COC4)cn1)C2 (stereo not shown) [Example 6] | 101
O=C(c1cnc(NC2Cc3cc(Cl)cc(F)c3C2)nc1)N1CCC12COC2 (racemic) [Example 8, (2-((6-chloro-4-fluoro-2,3-dihydro-1H-inden-2-yl)amino)pyrimidin-5-yl)(6-oxa-1-azaspiro[3.3]heplan-l-yl)melhanone] | 111
N#Cc1cc(Cl)cc2c1C[C@@H](Nc1ncc(C(=O)N3CCC34COC4)cn1)C2 [Example 11, (S)-2-((5-(6-oxa-1-azaspiro[3.3]heptane-1-carbonyl)pyrimidin-2-yl)amino)-6-chloro-2,3-dihydro-1H-indene-4-carbonitrile] | 7.4
N#Cc1cc(Cl)cc2c1CC(Nc1ncc(C(=O)N3CCC34COC4)cn1)C2 (stereo not shown) [Example 4, 2-((5-(6-oxa-1-azaspiro[3.3]heptane-1-carbonyl)pyrimidin-2-yl)amino)-6-chloro-2,3-dihydro-1H-indene-4-carbonitrile] | 20.8
O=C(c1cnc(NC2Cc3cccc(Cl)c3C2)nc1)N1CCC12COC2 (stereo not shown) [Example 15, (2-((4-chloro-2,3-dihydro-1H-inden-2-yl)amino)pyrimidin-5-yl)(6-oxa-1-azaspiro[3.3]heptan-1-yl)methanone] | 282
O=C(c1cnc(NC2Cc3cc(Cl)cc(C(F)(F)F)c3C2)nc1)N1CCC12COC2 (stereo not shown) [Example 10, (2-((6-chloro-4-(trifluoromethyl)-2,3-dihydro-1 H-inden-2-yl)amino)pyrimidin-5-yl)(6-oxa-1-azaspiro[3.3]heptan-1-yl)melhanone] | 184
Cc1cc(Cl)cc2c1CC(Nc1ncc(C(=O)N3CCC34COC4)cn1)C2 (stereo not shown) [Example 2, (2-((6-chloro-4-methyl-2,3-dihydro-1H-inden-2-yl)amino)pyrimidin-5-yl)(6-oxa-1-azaspiro[3.3]heptan-1-yl)methanone] | 62

From patent publication US12600712B2 (Hoffmann-La Roche Inc., priority 2020, dated 2026)
